From paper PMC12040169 (PLOS Biology, 2025) come the findings set out here.

The nature of one series: in vitro. The following applies: human, hela cells, % viability.
Usually viability stands for a read-out of living cells in per cent, often relative to untreated cells. With `COC(=O)N1CCC(C(=O)NC(c2ccccc2)c2nc(OC)cc(OC)n2)CC1` (stereo not drawn) [CBK059651], the viability at 28.5 h, 10 µM was 90.6%.
Turning to `CC(C)S(=O)(=O)N1CCC(C(=O)NC(c2ccccc2)c2ccc3ccccc3n2)CC1` (stereo not drawn) [CBK059676], the viability at 28.5 h, 10 µM amounted to 94.1%.
`O=C(NC(c1ccc(Cl)cc1)c1cccnc1)C1CCN(C(=O)C2CC2)CC1` (stereo not drawn) [CBK059686]: the viability at 28.5 h, 10 µM stood at 90.4%.
Still for that read-out and setting: to `C=CCOC(=O)N1CCC(C(=O)NC(c2ccccn2)c2ccccc2C)CC1` (stereo not drawn) [CBK059689] belongs 94%; to `CS(=O)(=O)N1CCC(C(=O)NC(c2ccc(F)cc2)c2ccccn2)CC1` (stereo not drawn) [CBK059696], 94.9%; to `Cc1ccccc1C(NC(=O)C1CCN(S(=O)(=O)C(C)C)CC1)c1ccccn1` (stereo not drawn) [CBK059711], 104%.
As for `Cc1ccccc1C(NC(=O)C1CCN(C(=O)c2ccccc2)CC1)c1ccccn1` (stereo not drawn) [CBK059720], the viability at 28.5 h, 10 µM is 94.5%.
Same read-out and setting: the value for `Cc1ccccc1C(NC(=O)C1CCN(C(=O)N(C)c2ccccc2)CC1)c1ccccn1` (stereo not drawn) [CBK059721] was 88.7%; that for `COc1ccc(C(NC(=O)C2CCN(C(=O)OCc3ccccc3)CC2)c2ccccc2C)cn1` (stereo not drawn) [CBK059726] was 91.4%.
Same read-out and setting: to `COc1ccc(C(NC(=O)C2CCN(S(C)(=O)=O)CC2)c2ccccc2C)cn1` (stereo not drawn) [CBK059738] belongs 104%; to `O=C(NC(c1ccccc1)c1ccco1)C1CCN(C(=O)c2cccs2)CC1` (stereo not drawn) [CBK059854], 82.4%.
In the case of `COC(=O)N1CCC(C(=O)NC(c2ccccc2)c2ncccc2C)CC1` (stereo not drawn) [CBK059885], the viability at 28.5 h, 10 µM worked out at 92.6%.
Still for that read-out and setting: the value for `O=C(NC(c1ccc(F)cc1)c1cnccn1)C1CCN(C(=O)c2ccco2)CC1` (stereo not drawn) [CBK059956] was 94.3%.
`O=C(NC(c1ccc(F)cc1)c1cnccn1)C1CCN(S(=O)(=O)c2cccc(Cl)c2)CC1` (stereo not drawn) [CBK060013]: the viability at 28.5 h, 10 µM stood at 85.1%.
For `CC(C)(C)C(=O)N1CCC(C(=O)NC(c2ccc3c(c2)OCO3)c2ccccn2)CC1` (stereo not drawn) [CBK060074], the viability at 28.5 h, 10 µM amounted to 110%.
Still for that read-out and setting: to `O=C(NC(c1ccc(Cl)cc1)c1ccsc1)C1CCN(S(=O)(=O)CC(F)(F)F)CC1` (stereo not drawn) [CBK060088] belongs 89.1%; to `O=C(NC(c1ccccc1)c1ccccn1)C1CCN(C(=O)Oc2ccccc2)CC1` (stereo not drawn) [CBK060105], 96.9%.
Turning to `CC(=O)N1CCC(C(=O)N2CCC(C(=O)NC(c3ccccn3)c3cccs3)CC2)CC1` (stereo not drawn) [CBK060118], the viability at 28.5 h, 10 µM came to 95%.
In the case of `Cn1cnc(S(=O)(=O)N2CCC(C(=O)NC(c3ccccn3)c3cccs3)CC2)c1` (stereo not drawn) [CBK060131], the viability at 28.5 h, 10 µM amounted to 105%.
On the same count and under the same terms, the value for `Cc1ccc(C(=O)N2CCC(C(=O)NC(c3ccccc3)c3ccsc3)CC2)cc1` (stereo not drawn) [CBK060154] was 109%; that for `COCCOC(=O)N1CCC(C(=O)NC(c2ccccc2)c2ccsc2)CC1` (stereo not drawn) [CBK060155] was 94.4%; that for `COc1cc(OC)nc(C(NC(=O)C2CCN(C(=O)c3ccno3)CC2)c2ccc(Cl)cc2)n1` (stereo not drawn) [CBK060169] was 115%.
Still for that read-out and setting: to `CN(C(=O)C1CCN(C(=O)c2ccoc2)CC1)C(c1ccc(F)cc1)c1ccccn1` (stereo not drawn) [CBK060206] belongs 91.5%.
The same measure, in the same setting: the value for `Cc1ccccc1C(c1cnccn1)N(C)C(=O)C1CCN(C(=O)c2ccccc2)CC1` (stereo not drawn) [CBK060208] was 94.4%.
In the case of `COc1cccc(C(c2ccccn2)N(C)C(=O)C2CCN(S(=O)(=O)c3c(C)noc3C)CC2)c1` (stereo not drawn) [CBK060212], the viability at 28.5 h, 10 µM turned out to be 96.4%.
Regarding `Cc1ccc(S(=O)(=O)N2CCC(C(=O)NC(c3ccccc3C)c3ncccc3C)CC2)cc1` (stereo not drawn) [CBK060249], the viability at 28.5 h, 10 µM was determined as 94.3%.
The same measure, in the same setting: the value for `COc1ccc(C(c2ccccn2)N(C)C(=O)C2CCN(S(=O)(=O)C(C)C)CC2)cc1` (stereo not drawn) [CBK060280] was 88.2%.
In the case of `COc1ccc(C(NC(=O)C2CCN(C(=O)NC(C)(C)C)CC2)c2ccccn2)cc1` (stereo not drawn) [CBK060298], the viability at 28.5 h, 10 µM was 112%.
Regarding `O=C(NC(c1ccccc1)c1cccnc1)C1CCN(C(=O)NCCc2cccs2)CC1` (stereo not drawn) [CBK060313], the viability at 28.5 h, 10 µM turned out to be 78.3%.
Same read-out and setting: to `O=C(NC(c1ccccc1)c1cccnc1)C1CCN(C(=O)NC2CCCCC2)CC1` (stereo not drawn) [CBK060378] belongs 84%; to `Cc1ccccc1C(NC(=O)C1CCN(C(=O)NCc2ccccc2)CC1)c1ncccc1C` (stereo not drawn) [CBK060398], 94.9%.
On the same count and under the same terms, to `O=C(NC(c1ccccc1)c1ccco1)C1CCN(C(=S)NCCc2ccccc2)CC1` (stereo not drawn) [CBK060412] belongs 94.4%; to `CN(C(=O)C1CCN(C(=S)NCc2ccccc2)CC1)C(c1ccccc1)c1ccccn1` (stereo not drawn) [CBK060476], 91.7%; to `Cn1c(=O)n(CC(=O)N2CCC(C(=O)NC(c3ccccc3)c3ccccn3)CC2)c2ccccc21` (stereo not drawn) [CBK060494], 96%.
Still for that read-out and setting: the value for `Cc1cccnc1C(c1ccccc1)N(C)C(=O)C1CCN(C(=O)OCc2ccccc2)CC1` (stereo not drawn) [CBK060522] was 93.9%; that for `CCNS(=O)(=O)c1ccc(Cn2nc(NC(=O)C3COc4ccccc4O3)c3ccccc32)cc1` (stereo not drawn) [CBK061613] was 109%; that for `CN1CCC2(CC1)NCCc1c2ccn1S(=O)(=O)c1cccc2c(N(C)C)cccc12` [CBK061633C] was 105%.
Take `CCN(C(=O)c1cnccn1)C(CC1CCCCC1)c1ccccc1` (stereo not drawn) [CBK061638]: the viability at 28.5 h, 10 µM worked out at 92.9%.
On the same count and under the same terms, to `COc1ccc2[nH]c3c(c2c1)CCNC31CCN(C(=O)COc2ccccc2)C1` (stereo not drawn) [CBK061661] belongs 88.8%; to `Cc1c(C(N)=O)sc2nc(C(F)(F)F)cc(N)c12` [CBK061693], 97.1%.

The same series, now with this note: human, hela cells, % viability, bulk resorufin, single well.
For the compound `COc1ccccc1NC(=O)N1CCC2(CC1)OCc1cc(-c3ccccc3)ccc1O2` [CBK060599], the viability at 28.5 h, 10 µM was 109%.
As to `Cc1noc(C)c1NC(=O)N1CCC2(CC1)OCc1cc(F)ccc1O2` [CBK060721], the viability at 28.5 h, 10 µM worked out at 97.8%.
Still for that read-out and setting: to `O=C(Nc1cccc(Cl)c1)N1CCC2(CC1)OCc1cc(F)ccc1O2` [CBK060722] belongs 87.5%.
The same measure, in the same setting: to `CCNC(=O)N1CCC2(CC1)OCc1cc(-c3ccc(Cl)cc3)ccc1O2` [CBK060737] belongs 90.1%.
The same measure, in the same setting: to `COc1ccc2c(c1)COC1(CCN(C(=O)NC3CCCCC3)CC1)O2` [CBK060755] belongs 111%.
With `O=C(NCCc1cccs1)N1CCC2(CC1)OCc1cc(F)ccc1O2` [CBK060769], the viability at 28.5 h, 10 µM turned out to be 98.3%.
Same read-out and setting: the value for `CSc1cc(C)c2c(c1)COC1(CCN(C(=O)Nc3cccs3)CC1)O2` [CBK060795] was 90.6%; that for `COc1ccc2c(c1)COC1(CCN(C(=O)Nc3cccs3)CC1)O2` [CBK060803] was 105%.
Still for that read-out and setting: to `CSc1cc(C)c2c(c1)COC1(CCN(C(=O)COCC(=O)O)CC1)O2` [CBK060839] belongs 94.1%.
In the case of `CSc1cc(C)c2c(c1)COC1(CCN(C(=O)c3ccccc3C(=O)O)CC1)O2` [CBK060843], the viability at 28.5 h, 10 µM stood at 94.1%.
On to `COc1ccc2c(c1)COC1(CCN(C(=O)CC(C)(C)CC(=O)O)CC1)O2` [CBK060855], for which the viability at 28.5 h, 10 µM came out at 90.3%.
Same read-out and setting: the value for `O=C(O)COCC(=O)N1CCC2(CC1)OCc1cc(F)ccc1O2` [CBK060859] was 106%; that for `O=C(O)c1ccccc1C(=O)N1CCC2(CC1)OCc1cc(F)ccc1O2` [CBK060863] was 109%; that for `Cc1ccc(-c2ccc3c(c2)COC2(CCNCC2)O3)c(C)c1` [CBK060881] was 89.7%.
The same measure, in the same setting: to `CC(=O)N1CCC2(CC1)OCc1cc(-c3ccc(C)o3)ccc1O2` [CBK060889] belongs 87.1%; to `Fc1cc(F)cc(-c2ccc3c(c2)COC2(CCNCC2)O3)c1` [CBK060915], 87.7%; to `c1cc2c(cc1-c1ccc3c(c1)COC1(CCNCC1)O3)CCO2` [CBK060920], 108%.
On the same count and under the same terms, to `c1cc2c(cc1-c1ccc3c(c1)OCO3)COC1(CCNCC1)O2` [CBK060925] belongs 95.9%; to `c1ccc2c(-c3ccc4c(c3)COC3(CCNCC3)O4)cccc2c1` [CBK060951], 92.5%; to `CC(=O)c1ccc(-c2ccc3c(c2)COC2(CCN(C(C)=O)CC2)O3)s1` [CBK060967], 109%.
As for `CC(=O)N1CCC2(CC1)OCc1cc(-c3cccc4cccnc34)ccc1O2` [CBK060969], the viability at 28.5 h, 10 µM turned out to be 88.4%.
The same measure, in the same setting: to `CC(=O)N1CCC2(CC1)OCc1cc(-c3ccc(Cl)cc3)ccc1O2` [CBK060974] belongs 113%.
Regarding `CC(=O)N1CCC2(CC1)OCc1cc(-c3cnc4ccccc4c3)ccc1O2` [CBK060976], the viability at 28.5 h, 10 µM worked out at 93.8%.
Still for that read-out and setting: to `CS(=O)(=O)c1cccc(-c2ccc3c(c2)COC2(CCNCC2)O3)c1` [CBK060990] belongs 94.4%; to `c1cc(-c2ccc3c(c2)COC2(CCNCC2)O3)c2cccnc2c1` [CBK060995], 104%; to `CC(=O)N1CCC2(CC1)OCc1cc(-c3ccccc3C#N)ccc1O2` [CBK061006], 100%.
On the same count and under the same terms, to `CN(C)c1ccc(C(=O)N2CCC3(CC2)OCc2cc(Cl)ccc2O3)cc1` [CBK061067] belongs 87.8%; to `CSc1cc(C)c2c(c1)COC1(CCN(C(=O)Cc3ccccc3)CC1)O2` [CBK061099], 93.4%.
The same measure, in the same setting: the value for `CSc1cc(C)c2c(c1)COC1(CCN(C(=O)c3ccco3)CC1)O2` [CBK061106] was 92.6%.
As for `O=C1NC(=O)C(CC(=O)N2CCC3(CC2)OCc2cc(-c4ccccc4)ccc2O3)N1` (stereo not drawn) [CBK061111], the viability at 28.5 h, 10 µM was 85.6%.
As to `CC(C)C(=O)N1CCC2(CC1)OCc1cc(Cl)ccc1O2` [CBK061121], the viability at 28.5 h, 10 µM is 89.6%.
Consider `COc1cccc2c1OC1(CCN(C(=O)c3cccn3C)CC1)OC2` [CBK061166], for which the viability at 28.5 h, 10 µM worked out at 85.1%.
Regarding `COc1cccc2c1OC1(CCN(C(=O)C3CCC3)CC1)OC2` [CBK061168], the viability at 28.5 h, 10 µM amounted to 85.4%.
On the same count and under the same terms, to `O=C(c1ccoc1)N1CCC2(CC1)OCc1ccccc1O2` [CBK061234] belongs 94.7%; to `Cc1nocc1C(=O)N1CCC2(CC1)OCc1ccccc1O2` [CBK061470], 105%.
